Data reported in US11179380B2, “Compounds and compositions for use in treating psoriasis” (SOLVOTRIN THERAPEUTICS LTD, priority 2017, dated 2021).
Read-outs that look alike come from different tables or passages of the source.

Assay: Log P from reversed-phase TLC Rf/Rm values (MeOH in water mobile phases)
Details: for Rm: calculated from Rf
Procedure: The partition coefficient (P) is used to describe the lipophilicity of a drug. It is defined as the ratio of equilibrium concentrations of a drug in an organic phase (Corg) and an aqueous phase (Caq).
Most commonly the organic solvent is n-octanol and the other solvent is water. Hydrophobic molecules will have a high P value while hydrophilic molecules will have a low P value.
Rm values were calculated from Rf values that were obtained at three different mobile phase compositions (40, 50 and 60% MeOH in water).
The Rm value was calculated using the following equation: […]
The theoretical Rm value at 0% organic modifier was calculated by extrapolating from the calibration curves that were obtained. These values were then correlated to the literature log P of two reference compounds (methyl benzoate and paracetamol).

Compound: CCCCC(=O)O[C@H]1CO[C@H]2[C@@H]1OC[C@H]2OC(=O)c1cccnc1 [Isosorbide-2-Valeroate-5-nicotinate, Isosorbide 2-valeroate-5-nicotinate]
- Extrapolated Rm (y value): 2.9143
- Log P (calculated): 3.8225
- Rf (40% MeOH in water): 0.0530
- Rm (40% MeOH in water): 1.2521
- Rf (50% MeOH in water): 0.1200
- Rm (50% MeOH in water): 0.8653
- Rf (60% MeOH in water): 0.2730
- Rm (60% MeOH in water): 0.4254

Compound: CC(=O)OC1COC2C(OC(=O)c3cccnc3)COC12 (stereo not drawn) [Isosorbide-2-Acetate-5-nicotinate, Isosorbide 2-acetate-5-nicotinate]
- Extrapolated Rm (y value): 1.2763
- Log P (calculated): 1.3369
- Rf (40% MeOH in water): 0.2860
- Rm (40% MeOH in water): 0.3973
- Rf (50% MeOH in water): 0.3730
- Rm (50% MeOH in water): 0.2256
- Rf (60% MeOH in water): 0.5200
- Rm (60% MeOH in water): −0.0348

Compound: CCC(=O)OC1COC2C(OC(=O)c3cccnc3)COC12 (stereo not drawn) [Isosorbide-2-Propionate-5-nicotinate, Isosorbide 2-propionate-5-nicotinate]
- Extrapolated Rm (y value): 1.9553
- Log P (calculated): 2.367
- Rf (40% MeOH in water): 0.1600
- Rm (40% MeOH in water): 0.7202
- Rf (50% MeOH in water): 0.2730
- Rm (50% MeOH in water): 0.4254
- Rf (60% MeOH in water): 0.4400
- Rm (60% MeOH in water): 0.1047

Compound: CCCC(=O)O[C@H]1CO[C@H]2[C@@H]1OC[C@H]2OC(=O)c1cccnc1 [Isosorbide-2-Butyrate-5-nicotinate, Isosorbide 2-butyrate-5-nicotinate]
- Extrapolated Rm (y value): 2.2483
- Log P (calculated): 2.8118
- Rf (40% MeOH in water): 0.1060
- Rm (40% MeOH in water): 0.9260
- Rf (50% MeOH in water): 0.2067
- Rm (50% MeOH in water): 0.5841
- Rf (60% MeOH in water): 0.3530
- Rm (60% MeOH in water): 0.2631

Compound: O=[N+]([O-])O[C@@H]1CO[C@H]2[C@@H]1OC[C@@H]2O [ISMN, isosorbide mononitrate, reference compound]
- Rf (40% MeOH in water): 0.6060
- Rm (40% MeOH in water): −0.1870
- Rf (50% MeOH in water): 0.6530
- Rm (50% MeOH in water): −0.2746
- Rf (60% MeOH in water): 0.7000
- Rm (60% MeOH in water): −0.3680
- Log P (calculated) (from extrapolated Rm correlated to literature log P of methyl benzoate and paracetamol): −0.333
- Extrapolated Rm (y value) (theoretical Rm at 0% organic modifier): 0.176

Compound: O=C(OC1COC2C(OC(=O)c3cccnc3)COC12)c1ccccc1 (stereo not drawn) [Isosorbide-2-Benzoate-5-nicotinate, Isosorbide 2-benzoate-5-nicotinate]
- Extrapolated Rm (y value): 3.5292
- Log P (calculated): 4.7555
- Rf (40% MeOH in water): 0.0260
- Rm (40% MeOH in water): 1.5736
- Rf (50% MeOH in water): 0.0870
- Rm (50% MeOH in water): 1.0210
- Rf (60% MeOH in water): 0.2060
- Rm (60% MeOH in water): 0.5860
